{"source": "patent US6365216B1", "about": "“Particles of N-[N-(3,3-dimethylbutyl)-L-α-aspartyl]-L-phenylalanine 1-methyl ester” (The NutraSweet Company, priority 1999, dated 2002)", "origin": "cited, not measured here", "conditions": "times sweeter than sugar (sucrose)", "data": [{"molecule": "COC(=O)C(Cc1ccccc1)NC(=O)C(CC(=O)O)NCCC(C)(C)C", "note": "[neotame, N-[N-(3,3-dimethylbutyl)-L-α-aspartyl]-L-phenylalanine 1-methyl ester]", "values": [{"measurement": "sweetness potency", "value": "about 8000 X"}]}]}
